Calls of active or inactive are those of the source. The calls are words filed in the database; no cut-off is given here.
Columns and labels:
BV-2 [1] = assay: Neuroprotective activity against LPS/IFN-gamma induced mouse BV-2 cells assessed as reduction in ROS level by measuring change in fluorescence intensity at 10 uM incubated for 48 hrs by CellROX reagent based fluorescence analysis; format: functional, cell-based
BV-2 [2] = assay: Neuroprotective activity against LPS/IFN-gamma induced mouse BV-2 cells assessed as effect on cell viability at 10 uM incubated for 48 hrs by MTT assay; format: functional, cell-based
NADPH oxidase 2 [3] = molecular target: T1, NADPH oxidase 2 (Homo sapiens, UniProt P04839); assay: Inhibition of human NOX2
T1 sequence (P04839 whole entry): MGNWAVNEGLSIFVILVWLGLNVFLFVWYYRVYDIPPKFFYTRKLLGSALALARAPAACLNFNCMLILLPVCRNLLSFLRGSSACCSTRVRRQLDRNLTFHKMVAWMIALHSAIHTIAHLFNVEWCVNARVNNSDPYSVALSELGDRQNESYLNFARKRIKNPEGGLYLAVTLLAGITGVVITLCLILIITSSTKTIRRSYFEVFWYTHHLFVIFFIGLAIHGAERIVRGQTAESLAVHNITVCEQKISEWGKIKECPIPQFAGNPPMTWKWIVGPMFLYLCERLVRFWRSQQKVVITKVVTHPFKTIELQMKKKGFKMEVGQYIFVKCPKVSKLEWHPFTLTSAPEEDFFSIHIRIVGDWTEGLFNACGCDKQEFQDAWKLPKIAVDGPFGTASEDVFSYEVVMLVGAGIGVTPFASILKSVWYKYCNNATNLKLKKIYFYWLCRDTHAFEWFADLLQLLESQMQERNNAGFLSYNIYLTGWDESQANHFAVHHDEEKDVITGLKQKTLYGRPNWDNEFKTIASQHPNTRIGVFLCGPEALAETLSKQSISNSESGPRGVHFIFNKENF

NADPH oxidase 4 = molecular target: T2, NADPH oxidase 4 (Homo sapiens, UniProt Q9NPH5); assay: Inhibition of human NOX4
T2 sequence (Q9NPH5 whole entry): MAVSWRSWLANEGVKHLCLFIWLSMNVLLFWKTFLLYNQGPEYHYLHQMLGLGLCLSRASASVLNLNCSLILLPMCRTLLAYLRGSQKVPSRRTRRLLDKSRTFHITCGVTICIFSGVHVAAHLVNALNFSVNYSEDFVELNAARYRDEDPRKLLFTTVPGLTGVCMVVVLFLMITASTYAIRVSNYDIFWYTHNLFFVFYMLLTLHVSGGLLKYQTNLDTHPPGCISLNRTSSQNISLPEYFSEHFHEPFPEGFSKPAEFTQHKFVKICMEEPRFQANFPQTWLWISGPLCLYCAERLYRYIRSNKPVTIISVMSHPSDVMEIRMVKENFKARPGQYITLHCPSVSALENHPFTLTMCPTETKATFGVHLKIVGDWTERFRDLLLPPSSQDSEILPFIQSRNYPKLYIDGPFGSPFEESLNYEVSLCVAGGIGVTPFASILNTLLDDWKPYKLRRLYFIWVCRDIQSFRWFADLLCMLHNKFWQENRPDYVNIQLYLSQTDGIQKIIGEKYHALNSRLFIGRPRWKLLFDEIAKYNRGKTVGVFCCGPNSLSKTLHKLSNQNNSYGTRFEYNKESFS

NADPH oxidase 2 [4] = molecular target: T1, NADPH oxidase 2; assay: Inhibition of human NOX2 by cell based assay
NADPH oxidase 1 = molecular target: T3, NADPH oxidase 1 (Homo sapiens, UniProt Q9Y5S8); assay: Inhibition of human NOX1
T3 sequence (Q9Y5S8 whole entry): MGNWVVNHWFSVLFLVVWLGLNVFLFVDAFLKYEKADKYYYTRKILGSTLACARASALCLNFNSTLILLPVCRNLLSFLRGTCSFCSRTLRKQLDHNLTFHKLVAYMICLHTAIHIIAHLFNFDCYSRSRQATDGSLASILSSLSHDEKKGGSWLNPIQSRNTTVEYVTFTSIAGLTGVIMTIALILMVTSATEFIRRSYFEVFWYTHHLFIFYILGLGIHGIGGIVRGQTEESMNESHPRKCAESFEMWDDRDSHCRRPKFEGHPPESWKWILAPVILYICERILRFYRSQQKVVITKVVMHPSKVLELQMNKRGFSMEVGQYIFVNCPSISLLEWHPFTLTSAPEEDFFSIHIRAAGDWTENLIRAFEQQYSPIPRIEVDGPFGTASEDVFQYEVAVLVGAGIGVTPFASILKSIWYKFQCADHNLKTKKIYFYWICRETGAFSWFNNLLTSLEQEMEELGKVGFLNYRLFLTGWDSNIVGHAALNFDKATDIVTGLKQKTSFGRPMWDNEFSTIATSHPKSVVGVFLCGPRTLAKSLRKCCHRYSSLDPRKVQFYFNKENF

NADPH oxidase 5 = molecular target: T4, NADPH oxidase 5 (Homo sapiens, UniProt Q96PH1); assay: Inhibition of human NOX5
T4 sequence (Q96PH1 whole entry): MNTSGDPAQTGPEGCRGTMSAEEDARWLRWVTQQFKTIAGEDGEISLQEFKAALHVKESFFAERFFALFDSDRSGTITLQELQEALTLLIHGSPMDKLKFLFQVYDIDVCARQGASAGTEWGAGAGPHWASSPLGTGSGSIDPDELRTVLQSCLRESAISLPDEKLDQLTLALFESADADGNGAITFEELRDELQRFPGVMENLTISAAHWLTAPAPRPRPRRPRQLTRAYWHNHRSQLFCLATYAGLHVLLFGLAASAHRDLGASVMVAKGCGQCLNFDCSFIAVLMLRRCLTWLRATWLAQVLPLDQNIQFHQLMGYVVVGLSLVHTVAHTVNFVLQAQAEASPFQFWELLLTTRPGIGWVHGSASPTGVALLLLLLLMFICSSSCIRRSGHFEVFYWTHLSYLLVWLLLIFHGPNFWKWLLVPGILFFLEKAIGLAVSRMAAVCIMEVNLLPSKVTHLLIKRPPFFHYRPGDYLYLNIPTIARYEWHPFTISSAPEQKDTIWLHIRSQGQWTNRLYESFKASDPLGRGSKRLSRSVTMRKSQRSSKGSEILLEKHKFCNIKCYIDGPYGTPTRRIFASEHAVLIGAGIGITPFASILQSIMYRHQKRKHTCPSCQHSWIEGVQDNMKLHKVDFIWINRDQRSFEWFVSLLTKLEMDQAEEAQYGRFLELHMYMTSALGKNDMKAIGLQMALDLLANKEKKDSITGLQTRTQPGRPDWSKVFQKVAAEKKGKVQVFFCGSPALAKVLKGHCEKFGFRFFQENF

Albumin = Albumin (Bos taurus, UniProt P02769); assay: Binding affinity to bovine serum albumin 5 to 20 uM incubated for 30 mins by mass spectrometry analysis; format: ADME; conditions: cattle, isolated protein, 0.5 h, dose 5-20 µM
Chain of Albumin (P02769 whole entry): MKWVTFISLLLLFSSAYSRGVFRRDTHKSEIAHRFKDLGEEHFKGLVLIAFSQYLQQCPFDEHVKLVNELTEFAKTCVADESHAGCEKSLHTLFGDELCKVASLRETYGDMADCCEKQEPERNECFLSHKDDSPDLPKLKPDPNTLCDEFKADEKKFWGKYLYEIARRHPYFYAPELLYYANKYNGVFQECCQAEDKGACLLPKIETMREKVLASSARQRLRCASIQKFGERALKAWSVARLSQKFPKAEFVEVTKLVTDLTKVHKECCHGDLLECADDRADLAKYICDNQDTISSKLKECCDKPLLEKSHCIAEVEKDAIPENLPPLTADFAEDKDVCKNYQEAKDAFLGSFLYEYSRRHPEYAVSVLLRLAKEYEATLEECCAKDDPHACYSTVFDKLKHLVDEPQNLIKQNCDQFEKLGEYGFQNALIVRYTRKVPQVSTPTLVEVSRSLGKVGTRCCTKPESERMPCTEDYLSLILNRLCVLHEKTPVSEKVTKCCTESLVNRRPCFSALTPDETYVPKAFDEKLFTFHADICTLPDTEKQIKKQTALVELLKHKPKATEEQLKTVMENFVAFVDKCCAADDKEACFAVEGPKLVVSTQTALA

Structure (SMILES) | IC50 (NADPH oxidase 2 [3]) [µM] | IC50 (NADPH oxidase 4) [µM] | EC50 (NADPH oxidase 2 [4]) [µM] | Activity (BV-2 [1]) | Activity (BV-2 [2]) | other results
c1ccc(Cn2nnc3c(Sc4nc5ccccc5o4)ncnc32)cc1 | – | – | – | Active | – | –
C#CCN[C@@H]1CCc2ccccc21 | – | – | – | – | Active | –
Clc1ncnc2c1nnn2Cc1ccccc1 | 5.1 | 5.7 | – | – | – | –
C#CCN(C)Cc1ccc(Cn2nnc3c(Sc4nc5ccccc5o4)ncnc32)cc1 | – | – | – | Active | Active | Activity (Albumin): Not_active

Now from value to molecule, other results behind:

IC50 (NADPH oxidase 2 [3]) [µM] | IC50 (NADPH oxidase 4) [µM] | EC50 (NADPH oxidase 2 [4]) [µM] | Structure (SMILES) | Activity (BV-2 [1]) | Activity (BV-2 [2]) | other results
5.1 | 5.7 | 2.1 | O=C1c2ccccc2-c2cc(N3CCC4(CC3)OCCO4)nc3cccc1c23 | – | – | –
7.7 | 81.2 | 5.7 | c1ccc(-c2cc(NC3CCNCC3)nc3ccccc23)cc1 | – | – | IC50 (NADPH oxidase 1): 71.2 µM; IC50 (NADPH oxidase 5): 28 µM

Reference: ChEMBL document CHEMBL6115021, “Design of Benzyl-triazolopyrimidine-Based NADPH Oxidase Inhibitors Leads to the Discovery of a Potent Dual Covalent NOX2/MAOB Inhibitor” (J Med Chem, 2025)
